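Cells were grown in 96-well plates and exposed to each compound for 48 hours at five concentrations; endpoints were interpolated linearly between bracketing concentrations, or set to the highest concentration if not reached. Definition used: TGI = concentration required for complete inhibition of growth.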
The molecules below were run on MALME-3M melanoma (assay: NCI tumour cell line growth inhibition, 48 h).
In the case of `CNc1ccc(OC)cc1S(=O)(=O)c1ccccc1[N+](=O)[O-]`, the TGI is reported as over 100 µM. Molecule `CC1(CCCO)CCCCCC(C)(CCCO)C1=O` (centres undefined) has a TGI of over 100 µM. In the case of `COC(C)(C)C1=CCC(C)CC1` (centres undefined), the TGI is reported as over 100 µM. `C=C1CC(c2ccc(OCCCN3C(=O)c4ccccc4C3=O)c(OC)c2)OC1=O` (centres undefined) showed a TGI of 12.4 µM.

What follows are molecules tested on MDA-N (assay: NCI tumour cell line growth inhibition, 48 h).
`CC1CC(N)=Nc2ccccc2N1` (centres undefined) showed a TGI of over 100 µM. Work on `O=C(O)c1n[nH]nc1Cl` yielded a TGI of over 100 µM. `CN(c1ccc(Cl)cc1)S(=O)(=O)c1cccc([N+](=O)[O-])c1` gave a TGI of over 100 µM. Molecule `CCC(=O)NC(Nc1cccc(F)c1C)(C(F)(F)F)C(F)(F)F` has a TGI of over 100 µM. With `Cc1cc2nc3c(C#N)c(-c4ccccc4)cc(Nc4ccc(Cl)cc4)n3c2cc1C` the TGI was over 100 µM. With `CN(c1ccc(Cl)cc1)S(=O)(=O)c1ccc([N+](=O)[O-])cc1` the TGI was over 100 µM. `O=S1(=O)OCCOS(=O)(=O)C1F` gave a TGI of over 100 µM. With `O=c1[nH]c(-c2ccc3ccccc3c2)nc2ccccc12` the TGI was over 100 µM. Molecule `CC(C)(C)C(=O)OCC1CCC[N+]2(C)CCCCC12` (centres undefined) has a TGI of over 100 µM. `COCCOCc1nc(C#N)c(N)o1` gave a TGI of over 100 µM. For `CN1C(=O)N/C(=C\c2ccc(S(=O)(=O)NN)cc2)C1=O`, the TGI was over 100 µM. `CN(C)Cc1cc(C(=O)/C=C/c2ccc(Cl)cc2)cc(CN(C)C)c1O` showed a TGI of 25.3 µM. `O=S(=O)(c1ccccc1)n1c2cc3cccnc3nc2c2cccnc21` was tested, and the TGI was over 100 µM. Work on `Cc1cc(N(CCC#N)CCC#N)ccc1/C(N=Nc1ccc([N+](=O)[O-])cc1)=N\NC(=O)c1cc(Cl)ccc1C(=O)c1ccccc1` yielded a TGI of over 100 µM. Molecule `CC(=O)c1c2c(cc3c1CC1(Cc4ccccc4C1=O)C3)CCC2` (centres undefined) has a TGI of over 100 µM. Work on `Cc1cccc(-c2nc3ccc([N+](=O)[O-])cc3c(=O)o2)c1` yielded a TGI of over 100 µM. In the case of `O=C1N=c2ccccc2=C1c1c(O)[nH]c2ccccc12`, the TGI is reported as over 100 µM. Work on `NC(N)=NCCN=C(N)N` yielded a TGI of over 100 µM. `NC(=O)C(N)Cc1ccc(O)cn1` (centres undefined) showed a TGI of over 100 µM. `COC(=O)C(C)(NC(=O)C(CC(=O)OC(C)(C)C)NC(=O)OC(C)(C)C)c1ccccc1` (centres undefined) was tested, and the TGI was over 100 µM. In the case of `COc1ccc(N=C2SC(=N/N=c3\sc4ccccc4n3C)SC2=Nc2ccc(OC)cc2)cc1`, the TGI is reported as over 100 µM. Work on `CCOC(=O)C1=CC(C)(C(=O)OCC)Nc2c(nc(OC)n(C)c2=O)N1` (centres undefined) yielded a TGI of over 10 µM. Work on `S=C(c1c[nH]c2ccccc12)N1CCOCC1` yielded a TGI of over 100 µM. `CNc1ccc(OC)cc1S(=O)(=O)c1ccccc1[N+](=O)[O-]` gave a TGI of over 100 µM. With `CC1(CCCO)CCCCCC(C)(CCCO)C1=O` (centres undefined) the TGI was over 100 µM. `COC(C)(C)C1=CCC(C)CC1` (centres undefined) gave a TGI of over 100 µM. `C=C1CC(c2ccc(OCCCN3C(=O)c4ccccc4C3=O)c(OC)c2)OC1=O` (centres undefined) was tested, and the TGI was 16.4 µM.

What follows are molecules tested on NCI-H226 lung (assay: NCI tumour cell line growth inhibition, 48 h).
Work on `CC1CC(N)=Nc2ccccc2N1` (centres undefined) yielded a TGI of over 100 µM. `O=C(O)c1n[nH]nc1Cl` showed a TGI of over 100 µM. With `CN(c1ccc(Cl)cc1)S(=O)(=O)c1cccc([N+](=O)[O-])c1` the TGI was over 100 µM. `CCC(=O)NC(Nc1cccc(F)c1C)(C(F)(F)F)C(F)(F)F` was tested, and the TGI was over 100 µM. `Cc1cc2nc3c(C#N)c(-c4ccccc4)cc(Nc4ccc(Cl)cc4)n3c2cc1C` was tested, and the TGI was over 100 µM. `CN(c1ccc(Cl)cc1)S(=O)(=O)c1ccc([N+](=O)[O-])cc1` was tested, and the TGI was over 100 µM. In the case of `O=S1(=O)OCCOS(=O)(=O)C1F`, the TGI is reported as over 100 µM. `O=c1[nH]c(-c2ccc3ccccc3c2)nc2ccccc12` was tested, and the TGI was over 100 µM. In the case of `CC(C)(C)C(=O)OCC1CCC[N+]2(C)CCCCC12` (centres undefined), the TGI is reported as over 100 µM. In the case of `COCCOCc1nc(C#N)c(N)o1`, the TGI is reported as over 100 µM. `CN1C(=O)N/C(=C\c2ccc(S(=O)(=O)NN)cc2)C1=O` showed a TGI of over 100 µM. `CN(C)Cc1cc(C(=O)/C=C/c2ccc(Cl)cc2)cc(CN(C)C)c1O` gave a TGI of 49.8 µM. `O=S(=O)(c1ccccc1)n1c2cc3cccnc3nc2c2cccnc21` showed a TGI of over 100 µM. With `Cc1cc(N(CCC#N)CCC#N)ccc1/C(N=Nc1ccc([N+](=O)[O-])cc1)=N\NC(=O)c1cc(Cl)ccc1C(=O)c1ccccc1` the TGI was 34.1 µM. `CC(=O)c1c2c(cc3c1CC1(Cc4ccccc4C1=O)C3)CCC2` (centres undefined) was tested, and the TGI was 72.4 µM. `Cc1cccc(-c2nc3ccc([N+](=O)[O-])cc3c(=O)o2)c1` showed a TGI of over 100 µM. With `O=C1N=c2ccccc2=C1c1c(O)[nH]c2ccccc12` the TGI was over 100 µM. Molecule `NC(=O)C(N)Cc1ccc(O)cn1` (centres undefined) has a TGI of over 100 µM. For `COC(=O)C(C)(NC(=O)C(CC(=O)OC(C)(C)C)NC(=O)OC(C)(C)C)c1ccccc1` (centres undefined), the TGI was over 100 µM. `COc1ccc(N=C2SC(=N/N=c3\sc4ccccc4n3C)SC2=Nc2ccc(OC)cc2)cc1` was tested, and the TGI was over 100 µM. `CCOC(=O)C1=CC(C)(C(=O)OCC)Nc2c(nc(OC)n(C)c2=O)N1` (centres undefined) was tested, and the TGI was over 10 µM. With `S=C(c1c[nH]c2ccccc12)N1CCOCC1` the TGI was over 100 µM. With `CNc1ccc(OC)cc1S(=O)(=O)c1ccccc1[N+](=O)[O-]` the TGI was over 100 µM. `CC1(CCCO)CCCCCC(C)(CCCO)C1=O` (centres undefined) was tested, and the TGI was over 100 µM. `C=C1CC(c2ccc(OCCCN3C(=O)c4ccccc4C3=O)c(OC)c2)OC1=O` (centres undefined) was tested, and the TGI was 23.4 µM.

These molecules were tested on NCI-H522 lung (assay: NCI tumour cell line growth inhibition, 48 h).
With `CC1CC(N)=Nc2ccccc2N1` (centres undefined) the TGI was over 100 µM. In the case of `O=C(O)c1n[nH]nc1Cl`, the TGI is reported as over 100 µM. `CN(c1ccc(Cl)cc1)S(=O)(=O)c1cccc([N+](=O)[O-])c1` gave a TGI of over 100 µM.

— PubChem BioAssay (NCI)
